Key:
[1] = molecular target: fecal human hemoglobin (Homo sapiens, UniProt P68871+P69905); details: single use of EDTA
[2] = molecular target: Hemoglobin (Homo sapiens, UniProt P68871+P69905); assay: Hemoglobin stabilization effect in storage solution, hemoglobin only (residual ratio by immunological measurement); details: for Residual ratio, Hemoglobin: stored at 37° C. for 20 hours, pH 7.0 HEPES storage solution; for Stabilizing effect (in words): 0.001-0.050 mol/L
[3] = molecular target: Hemoglobin + feces sample (Homo sapiens, UniProt P68871+P69905); assay: Hemoglobin stabilization effect in storage solution, hemoglobin coexisting with feces sample (residual ratio by immunological measurement); details: for Residual ratio, Hemoglobin + feces sample: stored at 37° C. for 20 hours, pH 7.0 HEPES storage solution; for Stabilizing effect (in words): 0.001-0.050 mol/L
[4] = test solution of hemoglobin only, 37° C., 20 hours
[5] = test solution in which hemoglobin and feces coexist, 37° C., 20 hours

Chain of Hemoglobin + feces sample (P69905 2-142 limits assumed): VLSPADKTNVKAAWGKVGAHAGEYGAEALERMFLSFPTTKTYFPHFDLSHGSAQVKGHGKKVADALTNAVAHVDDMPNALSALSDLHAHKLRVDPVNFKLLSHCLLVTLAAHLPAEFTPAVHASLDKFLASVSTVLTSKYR
Chain of Hemoglobin + feces sample (P68871 2-147 limits assumed): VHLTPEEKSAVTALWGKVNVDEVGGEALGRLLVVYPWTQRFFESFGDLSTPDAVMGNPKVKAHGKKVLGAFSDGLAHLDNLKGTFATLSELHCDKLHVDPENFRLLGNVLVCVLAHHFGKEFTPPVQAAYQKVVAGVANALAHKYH
Chain of Hemoglobin (P69905 2-142 limits assumed): as the sequence (P69905 2-142 limits assumed) above
Chain of Hemoglobin (P68871 2-147 limits assumed): as the sequence (P68871 2-147 limits assumed) above
Chain of fecal human hemoglobin (P69905 2-142 limits assumed): as the sequence (P69905 2-142 limits assumed) above
Chain of fecal human hemoglobin (P68871 2-147 limits assumed): as the sequence (P68871 2-147 limits assumed) above

Row | SMILES | Residual ratio, Hemoglobin ([2]; 0.001 mol/L agent added) | Residual ratio, Hemoglobin ([2]; 0.010 mol/L agent added) | Residual ratio, Hemoglobin ([2]; 0.050 mol/L agent added) | Stabilizing effect (in words) [2, 4] | Residual ratio, Hemoglobin + feces sample ([3]; 0.001 mol/L agent added) | Residual ratio, Hemoglobin + feces sample ([3]; 0.010 mol/L agent added) | Residual ratio, Hemoglobin + feces sample ([3]; 0.050 mol/L agent added) | Stabilizing effect (in words) [3, 5] | other results
1 | O=C(O)CN(CCN(CC(=O)O)CC(=O)O)CC(=O)O [EDTA, ethylenediamine-N,N,N′,N′-4 acetic acid] | 79.5% | 79.8% | 82.4% | slight stabilizing effect was observed | 34.3% | 35.8% | 37.1% | slightly higher effect to stabilize hemoglobin was observed | Stabilizing action on fecal human hemoglobin (in words) [1]: sufficient stabilizing action on fecal human hemoglobin cannot be expected
2 | O=C(O)CN(CCO)CC(=O)O [HIDA, N-(2-hydroxyethyl) iminodiacetic acid] | 80.3% | 79.3% | 81.6% | slight stabilizing effect was observed | 26.1% | 26.4% | 27.3% | any certain stabilizing effect was not observed | 
3 | O=C([O-])CC(NC(C(=O)[O-])C(O)C(=O)[O-])C(=O)[O-].[Na+].[Na+].[Na+].[Na+] (centres unmarked) [HIDS, tetrasodium 3-hydroxy-2,2′-iminodisuccinate] | 82.8% | 84.2% | 84.1% |  | 28.8% | 39.2% | 50.8% |  | Residual ratio, Hemoglobin ([2]; 0.005 mol/L agent added): 83.9%; Residual ratio, Hemoglobin ([2]; 0.075 mol/L agent added): 85.2%; Residual ratio, Hemoglobin ([2]; 0.100 mol/L agent added): 87.8%; Residual ratio, Hemoglobin ([2]; 0.150 mol/L agent added): 88.2%; Residual ratio, Hemoglobin ([2]; 0.200 mol/L agent added): 86.2%; Concentration at which a stabilizing effect was observed [2, 4]: ≥ 0.001 mol/L; Residual ratio, Hemoglobin + feces sample ([3]; 0.005 mol/L agent added): 32.3%; Residual ratio, Hemoglobin + feces sample ([3]; 0.075 mol/L agent added): 53.9%; Residual ratio, Hemoglobin + feces sample ([3]; 0.100 mol/L agent added): 55.9%; Residual ratio, Hemoglobin + feces sample ([3]; 0.150 mol/L agent added): 57.8%; Residual ratio, Hemoglobin + feces sample ([3]; 0.200 mol/L agent added): 46.3%; Concentration at which the effect to stabilize hemoglobin was remarkable ([3]; 37° C., 20 hours): ≥ 0.050 mol/L; Concentration at which the stabilizing effect is observed [3, 5]: ≥ 0.005 mol/L
4 | O=C(O)CNCC(=O)O [IDA, iminodiacetic acid] | 82.1% | 80.9% | 81.0% | slight stabilizing effect was observed | 28.0% | 27.3% | 26.3% | any certain stabilizing effect was not observed | 

— patent publication US8445719B2, “Method of stabilizing heme protein and storage solution therefor” (priority 2007, dated 2013)
